# Tests used:
# Format in all cases: in vivo
# chemical burns = assay: Topical composition in a patient with chemical burns (Example D); conditions: 0.20% w/v topical composition at each dressing change (b.i.d.)
# Excerpt: An topical composition for local administration, according to the present invention, is made comprising:
# A patient suffering from chemical burns applies the composition at each dressing change (b.i.d.).
# osteoarthritis = assay: Treatment of an osteoarthritis patient with oral capsules (Example B); conditions: human male, capsule with 70 mg daily for 5 years
# Experimental: A capsule for oral administration, according to the present invention, is made comprising:
# A human subject weighing 90 kg (198 lbs), suffering from osteoarthritis, is treated by a method of this invention. Specifically, for 5 years, a capsule containing 70 mg of Example 3 is administered daily to said subject.
# premetastatic tumor = assay: Injection beside a premetastatic tumor in a human subject (Example G); conditions: 100 mg/ml suspension, approx. 2.0 ml injected beside the tumor twice daily, after 30 days
# Experimental: A composition for parenteral administration is made comprising: The above ingredients are mixed, forming a suspension. Approximately 2.0 ml of the suspension is administered, via injection, to a human subject with a premetastatic tumor. The injection site juxtaposes the tumor. This dosage is repeated twice daily, for approximately 30 days.
# rheumatoid arthritis = assay: Treatment of a rheumatoid arthritis patient with oral tablets (Example A); conditions: human female, three 15 mg tablets per day orally for 2 years
# Experimental: A tablet composition for oral administration, according to the present invention, is made comprising:
# A human subject weighing 60 kg (132 lbs), suffering from rheumatoid arthritis, is treated by a method of this invention. Specifically, for 2 years, a regimen of three tablets per day is administered orally to said subject.
smiles,measurement,setting,value
"COc1ccc(S(=O)(=O)N2CN(Cc3ccccc3)C(=O)C(C)(C)C2C(=O)NO)cc1 (racemic) [Example 3, N-Hydroxy 1-Benzyl-5,5-dimethyl-3-[(4-methoxyphenyl)sulfonyl]-6-oxo-hexahydro-pyrimidine-4(R,S)-carboxamide]",scarring,chemical burns,Scarring is substantially diminished
same,"erosion/fibrillation of the articular cartilage, examined via orthoscopy",osteoarthritis,no further advancement of erosion/fibrillation of the articular cartilage
"COc1ccc(S(=O)(=O)N2CCN(C(C)C)C(=O)C[C@@H]2C(=O)NO)cc1 [Example 4, N-Hydroxy 1-(1-Methylethyl)-4-[(4-methoxyphenyl)sulfonylamino]-7-oxo-1,4-diazepine-5(R)-carboxamide]",symptoms of the disease,premetastatic tumor,symptoms of the disease subside
"COc1ccc(S(=O)(=O)N2CCSCCC2C(=O)NO)cc1 (centres unmarked) [Example 9, N-Hydroxy-4-[(4-methoxyphenyl)sulfonyl]-thiazepine-5-carboxamide]",inflammation at the end of the treatment period,rheumatoid arthritis,reduced inflammation
same,mobility and pain at the end of the treatment period,rheumatoid arthritis,improved mobility without concomitant pain

# From patent publication US6399598B1, “Diheterocyclic metalloprotease inhibitors” (The Procter & Gamble Company, priority 1996, dated 2002)
